row,SMILES,melting point
1,CCN/C(=N\S(=O)(=O)c1ccccc1Cl)N1CCC(CC)=N1,87 to 88 °C
2,"CCNC(=S)N1CC2(C=N1)CCCC2 [compound 1, 2,3-Diazaspiro[4.4]non-3-ene-2-carbothioic acid ethylamide]",120 to 121 °C
3,"CCN/C(=N\S(=O)(=O)c1ccc(N)cc1)N1CC2(C=N1)CCCC2 [compound 4, 4-Amino-N-[(2,3-diaza-spiro[4.4]non-3-en-2-yl)-ethylamino-methylene]-benzenesulfonamide]",141 to 142 °C
4,"CCNC(=S)N1CC(C)(C)C=N1 [compound 5, 4,4-Dimethyl-4,5-dihydro-pyrazole-1-carbothioic acid ethylamide]",66 to 67 °C
5,"O=C(Nc1ccccc1Br)C(F)(F)F [compound 12, N-(2-Bromo-phenyl)-2,2,2-trifluoro-acetamide]",58 to 59 °C
6,"O=C(Nc1ccc(S(=O)(=O)Cl)cc1Br)C(F)(F)F [compound 13, 3-Bromo-4-(2,2,2-trifluoro-acetylamino)-benzenesulfonyl chloride]",60 to 61 °C
7,"NS(=O)(=O)c1ccc(NC(=O)C(F)(F)F)c(Br)c1 [compound 14, N-(2-Bromo-4-sulfamoyl-phenyl)-2,2,2-trifluoro-acetamide]",171 to 172 °C
8,"NS(=O)(=O)c1c(Cl)nc2sccn12 [compound 21, 6-Chloro-imidazo[2,1-b]thiazole-5-sulfonic acid amide]",184 to 185 °C
9,"CCN/C(=N\S(=O)(=O)/C=C/c1ccccc1)N1CC(CC)C=N1 (stereo not drawn) [compound 29, Trans-2-phenyl-ethenesulfonic acid ethylamino-(4-ethyl-4,5-dihydro-pyrazol-1-yl)-methylene-amide]",91 to 92 °C
10,"NS(=O)(=O)c1ccc(Cl)s1 [compound 30, 5-Chloro-thiophene-2-sulfonic acid amide]",109 to 110 °C
11,"CC1(C)C=NN(C(N)=S)C1 [compound 31, 4,4-Dimethyl-4,5-dihydro-pyrazole-1-carbothioic acid amide]",149 to 150 °C
12,"CC1(C)C=NN(/C(N)=N/S(=O)(=O)c2ccc(Cl)s2)C1 [compound 33, 5-Chloro-thiophene-2-sulfonic acid amino-(4,4-dimethyl-4,5-dihydro-pyrazol-1-yl)-methylene-amide]",164 to 165 °C

# — US9422244B2, “Synthesis of substituted pyrazoline carboxamidine derivatives” (Abbvie Bahamas Ltd., priority 2010, dated 2016)
